PubChem BioAssay AID1963960 (Molecular Pharmacology Branch, DTP, NCI, 2024)

Test system: MDA-MB-468 spheroids with HUVEC/MSC, viability
Assay: Anticancer human tumor MDA-MB-468 cell line growth inhibition [PI3K];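 further: spheroids exposed to agents for seven days before readout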;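 on viability, T/C: 100% = DMSO vehicle control viability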
Conditions: for IC50: curve of first compound; for viability, T/C: stronger effect = lower value; active means viability on the fitted dose curve at most 10% of control; inactive means the rest
Procedure, shortened: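 Three cell types, namely tumor cells, endothelial cells and mesenchymal stem cells, formed each spheroid. Combinations with four PI3K inhibitors were screened at clinically achievable concentrations decreasing by half-log, and spheroid viability was recorded.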

[1] = second compound 0.0316 µM, first compound 0.0316 µM
[2] = second compound 0.0316 µM, first compound 0.1 µM
[3] = second compound 0.0316 µM, first compound 0.316 µM
[4] = second compound 0.0316 µM, first compound 1 µM
[5] = second compound 0.0316 µM, first compound 3.16 µM
[6] = second compound 0.0316 µM, first compound 10 µM
[7] = second compound 0.1 µM, first compound 0.0316 µM
[8] = second compound 0.1 µM, first compound 0.1 µM
[9] = second compound 0.1 µM, first compound 0.316 µM
[10] = second compound 0.1 µM, first compound 1 µM
[11] = second compound 0.1 µM, first compound 3.16 µM
[12] = second compound 0.1 µM, first compound 10 µM
[13] = second compound 0.316 µM, first compound 0.0316 µM
[14] = second compound 0.316 µM, first compound 0.1 µM
[15] = second compound 0.316 µM, first compound 0.316 µM
[16] = second compound 0.316 µM, first compound 1 µM
[17] = second compound 0.316 µM, first compound 3.16 µM
[18] = second compound 0.316 µM, first compound 10 µM
[19] = second compound 1 µM, first compound 0.0316 µM
[20] = second compound 1 µM, first compound 0.1 µM
[21] = second compound 1 µM, first compound 0.316 µM
[22] = second compound 1 µM, first compound 1 µM
[23] = second compound 1 µM, first compound 3.16 µM
[24] = second compound 1 µM, first compound 10 µM
[25] = second compound 3.16 µM, first compound 0.0316 µM
[26] = second compound 3.16 µM, first compound 0.1 µM
[27] = second compound 3.16 µM, first compound 0.316 µM
[28] = second compound 3.16 µM, first compound 1 µM
[29] = second compound 3.16 µM, first compound 3.16 µM
[30] = second compound 3.16 µM, first compound 10 µM
[31] = second compound 10 µM, first compound 0.0316 µM
[32] = second compound 10 µM, first compound 0.1 µM
[33] = second compound 10 µM, first compound 0.316 µM
[34] = second compound 10 µM, first compound 1 µM
[35] = second compound 10 µM, first compound 3.16 µM
[36] = second compound 10 µM, first compound 10 µM

C#Cc1c(F)ccc2cc(O)cc(-c3ncc4c(N5CC6CCC(C5)N6)nc(OCC56CCCN5CC(F)C6)nc4c3F)c12 (centres undefined) + Cc1nc(NC(=O)N2CCCC2C(N)=O)sc1-c1ccnc(C(C)(C)C(F)(F)F)c1
3.09 µM: IC50 (second compound 1 µM)
active: viability, T/C [30] 3.3% | viability, T/C [35] 7.98% | viability, T/C [36] 0.65%
inactive: viability, T/C [1] 83.2% | viability, T/C [2] 84.4% | viability, T/C [3] 80.2% | viability, T/C [4] 106% | viability, T/C [5] 100% | viability, T/C [6] 52.3% | viability, T/C [7] 91.1% | viability, T/C [8] 89.1% | viability, T/C [9] 88.9% | viability, T/C [10] 101% | viability, T/C [11] 79.9% | viability, T/C [12] 39.2% | viability, T/C [13] 92.4% | viability, T/C [14] 85.6% | viability, T/C [15] 69.9% | viability, T/C [16] 80.9% | viability, T/C [17] 75.6% | viability, T/C [18] 24.7% | viability, T/C [19] 92.4% | viability, T/C [20] 81.8% | viability, T/C [21] 71.8% | viability, T/C [22] 83.3% | viability, T/C [23] 49.4% | viability, T/C [24] 15.8% | viability, T/C [25] 80.5% | viability, T/C [26] 69.3% | viability, T/C [27] 53.4% | viability, T/C [28] 53.4% | viability, T/C [29] 35.4% | viability, T/C [31] 42.2% | viability, T/C [32] 26.6% | viability, T/C [33] 22.3% | viability, T/C [34] 18.9%
0.96 µM: IC50 (second compound 3.16 µM)
< 0.0316 µM: IC50 (second compound 10 µM)
> 10 µM: IC50 (second compound 0.0316 µM)
7.36 µM: IC50 (second compound 0.1 µM)
5.64 µM: IC50 (second compound 0.316 µM)

C=CC(=O)N1CCN(c2nc(=O)n(-c3c(C)ccnc3C(C)C)c3nc(-c4c(O)cccc4F)c(F)cc23)C(C)C1 (centres undefined) + Cc1nc(NC(=O)N2CCCC2C(N)=O)sc1-c1ccnc(C(C)(C)C(F)(F)F)c1
1.26 µM: IC50 (second compound 3.16 µM)
> 10 µM: IC50 (second compound 0.0316 µM) | IC50 (second compound 0.1 µM) | IC50 (second compound 0.316 µM)
< 0.0316 µM: IC50 (second compound 10 µM)
6.13 µM: IC50 (second compound 1 µM)
inactive: viability, T/C [1] 94.9% | viability, T/C [2] 92.7% | viability, T/C [3] 82.9% | viability, T/C [4] 131% | viability, T/C [5] 113% | viability, T/C [6] 67.8% | viability, T/C [7] 93.2% | viability, T/C [8] 100% | viability, T/C [9] 97.1% | viability, T/C [10] 122% | viability, T/C [11] 95.9% | viability, T/C [12] 63.6% | viability, T/C [13] 101% | viability, T/C [14] 100% | viability, T/C [15] 88.1% | viability, T/C [16] 91.6% | viability, T/C [17] 86.2% | viability, T/C [18] 57.5% | viability, T/C [19] 77.4% | viability, T/C [20] 80.9% | viability, T/C [21] 78.1% | viability, T/C [22] 88.3% | viability, T/C [23] 56.9% | viability, T/C [24] 44.9% | viability, T/C [25] 82.7% | viability, T/C [26] 63.7% | viability, T/C [27] 55.8% | viability, T/C [28] 60.8% | viability, T/C [29] 40.9% | viability, T/C [30] 37.2% | viability, T/C [31] 43.8% | viability, T/C [32] 31.2% | viability, T/C [33] 34.3% | viability, T/C [34] 25.6% | viability, T/C [35] 21.9% | viability, T/C [36] 15.8%
